≈ marks a conversion by molar mass, not a printed value.
What was measured:
A. faecalis ATCC 8750 = experiment: MIC, serial agar dilution method; assay type: cell-based; settings: nutrient agar pH 7, overnight 37° C.
Experimental: (§1) Antimicrobial activity of BBM-928 components was determined against a variety of bacteria and fungi by serial agar dilution method in nutrient agar at pH 7 using Steer's multi-inoculating apparatus. The inoculum size was standardized to apply a 0.0025-ml aliquot of test organisms containing approximately 10^4 cell/ml for all bacteria and fungi except acid-fast bacteria for which a 10^6 cell/ml suspension was used.

B. megaterium D2 = experiment: MIC, serial agar dilution method; assay type: cell-based; settings: nutrient agar pH 7, overnight 37° C.
Experimental: as §1

B. subtilis PCI 219 = experiment: MIC, serial agar dilution method; assay type: cell-based; settings: nutrient agar pH 7, overnight 37° C.
Experimental: as §1

C. arbicans IAM 4888 = experiment: MIC, serial agar dilution method; assay type: cell-based; settings: nutrient agar pH 7, overnight 37° C.
Experimental: as §1

C. neoformans = experiment: MIC, serial agar dilution method; assay type: cell-based; settings: nutrient agar pH 7, overnight 37° C.
Experimental: as §1

C. xerosis 53K-1 = experiment: MIC, serial agar dilution method; assay type: cell-based; settings: nutrient agar pH 7, overnight 37° C.
Experimental: as §1

E. coli NIHJ = experiment: MIC, serial agar dilution method; assay type: cell-based; settings: nutrient agar pH 7, overnight 37° C.
Experimental: as §1

K. pneumoniae D-11 = experiment: MIC, serial agar dilution method; assay type: cell-based; settings: nutrient agar pH 7, overnight 37° C.
Experimental: as §1

M. flavus D12 = experiment: MIC, serial agar dilution method; assay type: cell-based; settings: nutrient agar pH 7, overnight 37° C.
Experimental: as §1

M. phlei D88 = experiment: MIC, serial agar dilution method; assay type: cell-based; settings: nutrient agar pH 7, overnight 37° C., 10^6 cell/ml inoculum
Experimental: as §1

M. smegmatis 607 D87 = experiment: MIC, serial agar dilution method; assay type: cell-based; settings: nutrient agar pH 7, overnight 37° C., 10^6 cell/ml inoculum
Experimental: as §1

P. aeruginosa A9930 = experiment: MIC, serial agar dilution method; assay type: cell-based; settings: nutrient agar pH 7, overnight 37° C.
Experimental: as §1

P. mirabilis A9554 = experiment: MIC, serial agar dilution method; assay type: cell-based; settings: nutrient agar pH 7, overnight 37° C.
Experimental: as §1

P. morganii A9553 = experiment: MIC, serial agar dilution method; assay type: cell-based; settings: nutrient agar pH 7, overnight 37° C.
Experimental: as §1

P. vulgaris A9436 = experiment: MIC, serial agar dilution method; assay type: cell-based; settings: nutrient agar pH 7, overnight 37° C.
Experimental: as §1

S. aureus 209P = experiment: MIC, serial agar dilution method; assay type: cell-based; settings: nutrient agar pH 7, overnight 37° C.
Experimental: as §1

S. lutea PCI 1001 = experiment: MIC, serial agar dilution method; assay type: cell-based; settings: nutrient agar pH 7, overnight 37° C.
Experimental: as §1

S. marcescens A20019 = experiment: MIC, serial agar dilution method; assay type: cell-based; settings: nutrient agar pH 7, overnight 37° C.
Experimental: as §1

S. pyogenes S-23 = experiment: MIC, serial agar dilution method; assay type: cell-based; settings: nutrient agar pH 7, overnight 37° C.
Experimental: as §1

B. anthracis A9504 = assay type: cell-based; settings: nutrient agar pH 7, overnight 37° C.
lysogenic bacterium = experiment: Prophage induction in lysogenic bacterium (ILB); assay type: cell-based; settings: up to a concentration of 100 mcg./ml
Experimental: The activity of prophage induction in lysogenic bacterium (ILB) was determined for BBM-928 components.

P388 leukemia = experiment: Antitumor activity, intraperitoneally implanted tumor; assay type: in vivo, mouse
Experimental: (§2) Comparative testing of BBM-928 components A, B, C and D with mitomycin C for antitumor activity was carried out with the intraperitoneally implanted tumors: P388 leukemia, L1210 leukemia, B16 melamoma, Lewis Lung (LL) carcinoma, and sarcoma 180 ascites (S180). […] By varying dosage, the minimum effective dose (MED) was determined which provided a median survival time value for the treated animals at least 1.25 times greater than a control group. This level of activity is considered to be a measure of significant antitumor activity. […] Expt. Path.

[1] = Intraperitoneal LD50, method of Van der Waerden
B16 melamoma = experiment: Antitumor activity, intraperitoneally implanted tumor; assay type: in vivo, mouse
Experimental: as §2

L1210 leukemia = experiment: as above; assay type: in vivo, mouse
Experimental: as §2

[2] = tested on: Lewis Lung (LL) carcinoma; experiment: as above; assay type: in vivo, mouse
Experimental: as §2

[3] = tested on: sarcoma 180 ascites (S180); experiment: as above; assay type: in vivo, mouse
Experimental: as §2

[4] = single treatment on day 1, median survival time at least 1.25 times control
[5] = daily treatments from day 1 to day 9

For `COc1ccc2nc(C(=O)N[C@@H]3COC(=O)[C@H](C(C)(C)O)N(C)C(=O)CN(C)C(=O)CNC(=O)[C@@H]4[C@@H](O)CC=NN4C(=O)[C@H](NC(=O)c4nc5ccc(OC)cc5cc4O)COC(=O)[C@H](C(C)(C)O)N(C)C(=O)CN(C)C(=O)CNC(=O)[C@@H]4[C@@H](OC(C)=O)CC=NN4C3=O)c(O)cc2c1` [BBM-928B], the MIC (A. faecalis ATCC 8750) was > 100 µg/mL, the MIC (B. megaterium D2) was 25 µg/mL (≈ 18 µM) and the MIC (B. subtilis PCI 219) was 25 µg/mL (≈ 18 µM). For the same compound, the MIC (C. arbicans IAM 4888) was > 100 µg/mL, the MIC (C. neoformans) was > 100 µg/mL and the MIC (C. xerosis 53K-1) was 50 µg/mL (≈ 36.1 µM). For the same compound, the MIC (E. coli NIHJ) was > 100 µg/mL, the MIC (K. pneumoniae D-11) was > 100 µg/mL and the MIC (M. flavus D12) was 25 µg/mL (≈ 18 µM). The MIC (M. phlei D88) was 12.5 µg/mL (≈ 9.02 µM), the MIC (M. smegmatis 607 D87) was 25 µg/mL (≈ 18 µM) and the MIC (P. aeruginosa A9930) was > 100 µg/mL. The MIC (P. mirabilis A9554) was > 100 µg/mL, the MIC (P. morganii A9553) was > 100 µg/mL and the MIC (P. vulgaris A9436) was > 100 µg/mL. For the same compound, the MIC (S. aureus 209P) was 25 µg/mL (≈ 18 µM), the MIC (S. lutea PCI 1001) was 12.5 µg/mL (≈ 9.02 µM) and the MIC (S. marcescens A20019) was > 100 µg/mL. The MIC (S. pyogenes S-23) was 12.5 µg/mL (≈ 9.02 µM), the MIC (B. anthracis A9504) was 12.5 µg/mL (≈ 9.02 µM) and the “ILB activity (prophage induction in lysogenic bacterium)” value (“ILB activity” below) (lysogenic bacterium) was “No significant ILB activity”. For the same compound, the “Minimum Effective Dose (MED)” value (P388 leukemia; [4]) was 0.1 mg/kg/day and the “LD50, i.p.” value ([1]; single treatment on day 1) was 0.18 mg/kg/day.

In the case of `COc1ccc2nc(C(=O)N[C@@H]3COC(=O)[C@H](C(C)(C)O)N(C)C(=O)CN(C)C(=O)CNC(=O)[C@@H]4[C@@H](OC(C)=O)CC=NN4C(=O)[C@H](NC(=O)c4nc5ccc(OC)cc5cc4O)COC(=O)[C@H](C(C)(C)O)N(C)C(=O)CN(C)C(=O)CNC(=O)[C@@H]4[C@@H](OC(C)=O)CC=NN4C3=O)c(O)cc2c1` [BBM-928A], the MIC (A. faecalis ATCC 8750) was > 100 µg/mL, the MIC (B. megaterium D2) was 25 µg/mL (≈ 17.5 µM) and the MIC (B. subtilis PCI 219) was 25 µg/mL (≈ 17.5 µM). For the same compound, the MIC (C. arbicans IAM 4888) was > 100 µg/mL, the MIC (C. neoformans) was 100 µg/mL (≈ 70.1 µM) and the MIC (C. xerosis 53K-1) was 25 µg/mL (≈ 17.5 µM). For the same compound, the MIC (E. coli NIHJ) was > 100 µg/mL, the MIC (K. pneumoniae D-11) was > 100 µg/mL and the MIC (M. flavus D12) was 12.5 µg/mL (≈ 8.76 µM). For the same compound, the MIC (M. phlei D88) was 12.5 µg/mL (≈ 8.76 µM), the MIC (M. smegmatis 607 D87) was 25 µg/mL (≈ 17.5 µM) and the MIC (P. aeruginosa A9930) was > 100 µg/mL. The MIC (P. mirabilis A9554) was > 100 µg/mL, the MIC (P. morganii A9553) was > 100 µg/mL and the MIC (P. vulgaris A9436) was > 100 µg/mL. For the same compound, the MIC (S. aureus 209P) was 12.5 µg/mL (≈ 8.76 µM), the MIC (S. lutea PCI 1001) was 6.3 µg/mL (≈ 4.41 µM) and the MIC (S. marcescens A20019) was > 100 µg/mL. The MIC (S. pyogenes S-23) was 6.3 µg/mL (≈ 4.41 µM), the MIC (B. anthracis A9504) was 6.3 µg/mL (≈ 4.41 µM) and the “ILB activity” value (lysogenic bacterium) was “No significant ILB activity”. The “Activity Ratio (BBM-928A vs. Mitomycin C)” value (“Activity Ratio” below) (B16 melamoma; [5]) was 100, the “Minimum Effective Dose (MED)” value (B16 melamoma; [5]) was 0.003 mg/kg/day and the “Activity Ratio” value (B16 melamoma; single treatment on day 1) was 300. The “Minimum Effective Dose (MED)” value (B16 melamoma; [4]) was 0.003 mg/kg/day, the “Activity Ratio” value (L1210 leukemia; [5]) was 100 and the “Minimum Effective Dose (MED)” value (L1210 leukemia; [5]) was 0.003 mg/kg/day. The “Minimum Effective Dose (MED)” value (L1210 leukemia; [4]) was > 0.1 mg/kg/day, the “Activity Ratio” value [2, 5] was 100 and the “Minimum Effective Dose (MED)” value [2, 5] was 0.003 mg/kg/day. The “Activity Ratio” value ([2]; single treatment on day 1) was 10, the “Minimum Effective Dose (MED)” value [2, 4] was 0.03 mg/kg/day and the “Activity Ratio” value (P388 leukemia; [5]) was 100. The “Minimum Effective Dose (MED)” value (P388 leukemia; [5]) was 0.001 mg/kg/day, the “Activity Ratio” value (P388 leukemia; single treatment on day 1) was 30 and the “Minimum Effective Dose (MED)” value (P388 leukemia; [4]) was 0.003 mg/kg/day. For the same compound, the “Activity Ratio” value [3, 5] was 100, the “Minimum Effective Dose (MED)” value [3, 5] was 0.0001 mg/kg/day and the “Activity Ratio” value ([3]; single treatment on day 1) was 100. The “Minimum Effective Dose (MED)” value [3, 4] was 0.003 mg/kg/day, the “LD50, i.p.” value [1, 5] was 0.013 mg/kg/day and the “LD50, i.p.” value ([1]; single treatment on day 1) was 0.13 mg/kg/day.

With `COc1ccc2nc(C(=O)N[C@@H]3COC(=O)[C@H](C(C)(C)O)N(C)C(=O)CN(C)C(=O)CNC(=O)[C@@H]4[C@@H](O)CC=NN4C(=O)[C@H](NC(=O)c4nc5ccc(OC)cc5cc4O)COC(=O)[C@H](C(C)(C)O)N(C)C(=O)CN(C)C(=O)CNC(=O)[C@@H]4[C@@H](O)CC=NN4C3=O)c(O)cc2c1` [BBM-928C] the MIC (A. faecalis ATCC 8750) was > 100 µg/mL, the MIC (B. megaterium D2) was 50 µg/mL (≈ 37.2 µM) and the MIC (B. subtilis PCI 219) was 100 µg/mL (≈ 74.4 µM). The MIC (C. arbicans IAM 4888) was > 100 µg/mL, the MIC (C. neoformans) was 100 µg/mL (≈ 74.4 µM) and the MIC (C. xerosis 53K-1) was > 100 µg/mL. The MIC (E. coli NIHJ) was > 100 µg/mL, the MIC (K. pneumoniae D-11) was > 100 µg/mL and the MIC (M. flavus D12) was 50 µg/mL (≈ 37.2 µM). For the same compound, the MIC (M. phlei D88) was 12.5 µg/mL (≈ 9.31 µM), the MIC (M. smegmatis 607 D87) was 25 µg/mL (≈ 18.6 µM) and the MIC (P. aeruginosa A9930) was > 100 µg/mL. For the same compound, the MIC (P. mirabilis A9554) was > 100 µg/mL, the MIC (P. morganii A9553) was > 100 µg/mL and the MIC (P. vulgaris A9436) was > 100 µg/mL. The MIC (S. aureus 209P) was 50 µg/mL (≈ 37.2 µM), the MIC (S. lutea PCI 1001) was 50 µg/mL (≈ 37.2 µM) and the MIC (S. marcescens A20019) was > 100 µg/mL. The MIC (S. pyogenes S-23) was 25 µg/mL (≈ 18.6 µM), the MIC (B. anthracis A9504) was 25 µg/mL (≈ 18.6 µM) and the “ILB activity” value (lysogenic bacterium) was “No significant ILB activity”. The “LD50, i.p.” value ([1]; single treatment on day 1) was 0.81 mg/kg/day.

In the case of `CO[C@@]12[C@H](COC(N)=O)C3=C(C(=O)C(C)=C(N)C3=O)N1C[C@@H]1N[C@@H]12` [Mitomycin C, reference compound], the “Minimum Effective Dose (MED)” value (B16 melamoma; [5]) was 0.3 mg/kg/day, the “Minimum Effective Dose (MED)” value (B16 melamoma; [4]) was 1 mg/kg/day and the “Minimum Effective Dose (MED)” value (L1210 leukemia; [5]) was 0.3 mg/kg/day. The “Minimum Effective Dose (MED)” value (L1210 leukemia; [4]) was 3 mg/kg/day, the “Minimum Effective Dose (MED)” value [2, 5] was 0.3 mg/kg/day and the “Minimum Effective Dose (MED)” value [2, 4] was 0.3 mg/kg/day. The “Minimum Effective Dose (MED)” value (P388 leukemia; [5]) was 0.1 mg/kg/day, the “Minimum Effective Dose (MED)” value (P388 leukemia; [4]) was 0.1 mg/kg/day and the “Minimum Effective Dose (MED)” value [3, 5] was 0.03 mg/kg/day. The “Minimum Effective Dose (MED)” value [3, 4] was 0.3 mg/kg/day.

From US4360458A, “Antitumor antibacterial agents” (priority 1980, dated 1982)
